Measurements reported in US20250319067A1, “Improved Pharmacokinetics of Tryptamine Prodrugs” (Reunion Neuroscience, Inc., priority 2023, published 2025).
Where two headings read alike, the source gives them in different places.

Key:
rabbit hepatocytes = experiment: Hepatocyte intrinsic clearance, rabbit; type: in vitro ADME
Source text: (§1) In human, rat, rabbit, dog and monkey hepatocytes, the metabolite profile of RE104 was qualitatively similar across these species with only minor differences.

human hepatocytes = experiment: Hepatocyte intrinsic clearance, human; type: in vitro ADME
Source text: as §1

[1] = tested on: cytochrome P450 (CYP) enzymes, FMO and MAO enzymes; experiment: Recombinant human enzymes (Supersomes) substrate assay; type: in vitro ADME
[2] = Conversion in aqueous solution; type: physicochemical; conditions: as a function of pH
male Wistar rats = experiment: Forced swim test (FST) in rats; type: in vivo, rat
healthy females [3] = experiment: Phase 1 FIH study: modified Drug Effect Questionnaire (DEQ-High); type: in vivo, human; design: mean time to peak DEQ-High score: dose or concentration left out as unconfirmed
Protocol: (§2) The study was a double-blind, randomized, placebo-controlled Phase 1 single ascending dose study in up to 6 cohorts in healthy females. Eligibility was assessed during a screening period of up to 28 days prior to enrollment. For the treatment period, subjects were admitted to the clinical research unit (CRU) one day prior to the dosing (Day −1). On Day 1, all subjects will received the assigned SC dose of RE104 HCl or placebo in a fed state (after domiciling overnight and consuming a planned evening meal on Day −1 and morning meal on Day 1 while at the CRU). Subjects were allowed to select snacks from a planned menu from 4 hours following dosing. Subjects were discharged from the clinic on Day 2 (−24 hours post-dose) after all required study procedures were completed and if deemed medically fit. Subjects returned to the clinic on Day 10 (±2 days) for a follow up visit.
The Drug Effect Questionnaire (DEQ) Feel/High is widely used in studies of acute subjective response to a variety of substances, to assess two key aspects of subjective experience: (1) the strength of substance effects and (2) desirability of substance effects (Morean et al., 2013). The modified DEQ assesses the extent to which subjects (1) feel any substance effect(s) and (2) feel high. This version of the DEQ includes the following items: “Do you feel a drug effect right now?” (FEEL); “Are you high right now?” (HIGH). FIG. 2 sets out the modified DEQ that was used.
The modified DEQ was used as an 11-point numeric rating scale (0-10) administered by a qualified staff member. The subjects were asked to verbally respond to indicate how strongly they feel the drug effect and how high they feel on the scale of 0-10 after being administered the study drug (Kollltveit et al., 2020).

healthy females [4] = experiment: Phase 1 FIH study: Mystical Experience Questionnaire (MEQ30); type: in vivo, human
Protocol: as §2
The Mystical Experience Questionnaire (MEQ30) is a validated questionnaire that assesses individual episodes of a mystical experience produced by classic hallucinogens (Barrett et al. 2015). The validated MEQ30 uses thirty questions across 4 areas of experience: (i) Mystical (including items concerning internal unity, external unity, noetic quality, and sacredness); (ii) Positive mood; (iii) Transcendence of time and space; and (iv) Ineffability. The subjects will be asked to rate each item of the MEQ30 on a 6-point scale. FIG. 3 sets out the revised MEQ30 that was used.

[5] = Phase 1 FIH study: plasma pharmacokinetics (LC-MS/MS); type: in vivo; conditions: human; for Cmax / Tmax / half-life: female, plasma; for half-life: read-out: t1/2, mean (converted)
Protocol: as §2
The concentrations of RE104 and isoprocin in plasma were determined using a validated Liquid chromatography tandem mass spectrometry (LC-MS/MS) assay.

[6] = target: human recombinant 5-HT2A receptors (Homo sapiens, UniProt P28223); experiment: 5-HT2A agonist radioligand binding assay ([125I]DOI)
human recombinant 5-HT2A receptors, sequence (P28223 whole entry): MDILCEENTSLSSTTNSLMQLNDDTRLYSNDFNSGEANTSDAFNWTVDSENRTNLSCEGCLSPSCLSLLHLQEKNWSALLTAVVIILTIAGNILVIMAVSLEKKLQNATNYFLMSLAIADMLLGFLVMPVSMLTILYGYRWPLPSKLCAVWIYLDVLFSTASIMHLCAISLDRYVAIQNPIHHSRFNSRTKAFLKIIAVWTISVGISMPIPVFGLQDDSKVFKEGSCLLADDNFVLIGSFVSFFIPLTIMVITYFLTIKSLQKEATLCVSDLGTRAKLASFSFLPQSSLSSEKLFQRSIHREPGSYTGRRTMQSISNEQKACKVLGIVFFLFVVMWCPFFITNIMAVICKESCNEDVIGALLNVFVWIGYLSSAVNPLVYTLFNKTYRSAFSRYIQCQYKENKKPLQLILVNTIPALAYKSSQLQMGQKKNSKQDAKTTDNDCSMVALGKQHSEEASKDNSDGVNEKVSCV
Protocol: Increasing concentrations of RE104 were incubated with 0.2 nM [^125I]DOI in CHO cell cultures expressing human recombinant 5-HT2B receptors.
Radioligand concentration was measured by scintillation counting; compound binding was calculated as percent inhibition of the binding of [^125I]DOI. In agonist activity assays, test concentrations of RE104 were incubated with HEK-293 cells expressing human recombinant 5-HT2A receptors; IP1 production was detected using homogeneous time-resolved fluorescence. Activation was calculated as a percentage of the response to the positive control (10 μM 5-HT).
Inhibition constants were calculated by using the Cheng-Prusoff equation Ki=IC50/(1+L/KD), where L=radioligand concentration and KD=radioligand affinity for the receptor (determined with a Scatchard plot). In the functional activity assay test concentrations of RE104 were 10 nM, 30 nM, 100 nM, 300 nM, 1 μM, 3 μM, 10 μM, and 30 μM. EC50 and IC50 values were determined by nonlinear regression analysis of the concentration-response curves generated with mean replicate values using Hill equation curve fitting.

[7] = Rat PK after single IV or SC RE104 HCl 2 mg/kg (Example 1); conditions: plasma, sc, 2 mg/kg

**Q.** For `CC(C)N(CCc1c[nH]c2cccc(OC(=O)CCCC(=O)O)c12)C(C)C` [RE104], which “in vitro intrinsic clearance (CLint)” value (rabbit hepatocytes) is on record?
**A.** 4.88 mL/hr/106 cells

**Q.** What about the “in vitro intrinsic clearance (CLint)” value (human hepatocytes) of the same compound?
**A.** 3.45 mL/hr/106 cells

**Q.** What about the “substrate for cytochrome P450, FMO or MAO isoforms” value [1] of the same compound?
**A.** not a substrate

**Q.** What about the “conversion in aqueous solution” value [2] of the same compound?
**A.** slow conversion

**Q.** What about the “climbing as share of escape behaviors” value (male Wistar rats; rat FST, day 28) of the same compound?
**A.** 45%

**Q.** What about the “swimming as share of escape behaviors” value (male Wistar rats; rat FST, day 28) of the same compound?
**A.** 55%

**Q.** And the “mean swimming time relative to vehicle” value (male Wistar rats; rat FST, single 1 mg/kg dose)?
**A.** significantly increased

**Q.** What about the “mean immobility time vs vehicle” value (male Wistar rats; rat FST, single 1 mg/kg dose, day 7, 14, and 28) of the same compound?
**A.** significant decrease

**Q.** What about the “duration of distinctive serotonergic behaviors” value (male Wistar rats; rat, dosing day, 1 mg/kg) of the same compound?
**A.** approximately 3 hours

**Q.** What about the “mean time to peak DEQ-High score” value (healthy females [3]) of the same compound?
**A.** 1.1 h

**Q.** And the “Mean Experience Duration” value (healthy females [3]; 33 mg)?
**A.** 3.7 h

**Q.** And the “DEQ-High score, all participants” value (healthy females [3]; 4 hours post dose)?
**A.** 51

**Q.** And the “Participants with MEQ total score ≥60%” value (healthy females [4]; RE104 5.5 mg, n 6)?
**A.** 0%

**Q.** What about the “Participants with MEQ total score ≥60%” value (healthy females [4]; RE104 11 mg, n 6) of the same compound?
**A.** 50%

**Q.** What about the “Participants with MEQ total score ≥60%” value (healthy females [4]; RE104 22 mg, n 6) of the same compound?
**A.** 16.7%

**Q.** What about the “Participants with MEQ total score ≥60%” value (healthy females [4]; RE104 33 mg, n 9) of the same compound?
**A.** 66.7%

**Q.** And the “Participants with MEQ total score ≥60%” value (healthy females [4]; RE104 38 mg, n 6)?
**A.** 83.3%

**Q.** And the “Participants with MEQ total score ≥60%” value (healthy females [4]; RE104 44 mg, n 3)?
**A.** 100%

**Q.** What about the Cmax ([5]; RE104 dose 5.5 mg SC (n = 6)) of the same compound?
**A.** 173 ng/mL

**Q.** And the Tmax ([5]; RE104 dose 5.5 mg SC (n = 6))?
**A.** 25.2 min

**Q.** What about the half-life ([5]; RE104 dose 5.5 mg SC (n = 6)) of the same compound?
**A.** 31.8 min

**Q.** And the Cmax ([5]; RE104 dose 11 mg SC (n = 6))?
**A.** 527 ng/mL

**Q.** And the Tmax ([5]; RE104 dose 11 mg SC (n = 6))?
**A.** 19.8 min

**Q.** And the half-life ([5]; RE104 dose 11 mg SC (n = 6))?
**A.** 28.8 min

**Q.** What about the Cmax ([5]; RE104 dose 22 mg SC (n = 6)) of the same compound?
**A.** 788 ng/mL

**Q.** And the Tmax ([5]; RE104 dose 22 mg SC (n = 6))?
**A.** 22.8 min

**Q.** What about the half-life ([5]; RE104 dose 22 mg SC (n = 6)) of the same compound?
**A.** 30 min

**Q.** And the Cmax ([5]; RE104 dose 33 mg SC (n = 9))?
**A.** 1460 ng/mL

**Q.** And the Tmax ([5]; RE104 dose 33 mg SC (n = 9))?
**A.** 15 min

**Q.** What about the half-life ([5]; RE104 dose 33 mg SC (n = 9)) of the same compound?
**A.** 25.8 min

**Q.** And the Cmax ([5]; RE104 dose 38 mg SC (n = 6))?
**A.** 1250 ng/mL

**Q.** What about the Tmax ([5]; RE104 dose 38 mg SC (n = 6)) of the same compound?
**A.** 22.8 min

**Q.** And the half-life ([5]; RE104 dose 38 mg SC (n = 6))?
**A.** 38.4 min

**Q.** What about the Cmax ([5]; RE104 dose 44 mg SC (n = 3)) of the same compound?
**A.** 1800 ng/mL

**Q.** And the Tmax ([5]; RE104 dose 44 mg SC (n = 3))?
**A.** 25.2 min

**Q.** What about the half-life ([5]; RE104 dose 44 mg SC (n = 3)) of the same compound?
**A.** 31.2 min

**Q.** What about the “time after administration by which not detectable in plasma” value ([5]; any dose) of the same compound?
**A.** ≤ 5 h

**Q.** And the IC50 [6]?
**A.** 1600 nM

**Q.** What about the Ki ([6]; read-out: binding Ki at the 5-HT2A receptor, radioligand inhibition binding, HEK-293 cells) of the same compound?
**A.** 4300 nM

**Q.** And the bioavailability [7]?
**A.** ~100%
